Test results as given in patent US10308608B2, “Histone deacetylase inhibitors” (BIOMARIN PHARMACEUTICAL INC., priority 2015, dated 2019).
Where a name gives a salt, the structure may show the parent alone.

The molecules below were run on Frataxin (FXN) mRNA (assay: Effect of HDAC inhibitors on frataxin (FXN) mRNA expression, qRT-PCR in compound-treated iPSC derived neuronal cells). Settings: iPSC, 24 h, compound concentration of 0.625 μM, 24 h incubation, read-out: FXN mRNA fold induction.
Assay type: cell-based
Outline: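 iPSC-derived neuronal cells, differentiated 16 days without EGF/bFGF, treated with compound 24 h. FXN mRNA measured by one-step SYBR Green qRT-PCR; fold induction reported at 0.625 μM compound, binned A<1, 1<B<2, 2<C<3, 3<D<5, E>5.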

`Nc1ccccc1NC(=O)c1ccc(NC2CCN(C3COC3)CC2)cc1` [Compound 141, N-(2-aminophenyl)-4-((1-(oxetan-3-yl)piperidin-4-yl)amino)benzamide] and `CC(=O)N1CC(Nc2ccc(C(=O)Nc3ccccc3N)cc2)C1` [Compound 170, 4-((1-acetylazetidin-3-yl)amino)-N-(2-aminophenyl)benzamide] fall in the same range of fold induction at 0.625 µM: 1 to 2 for the first, 1 to 2 for the second.

First: Nc1ccccc1NC(=O)c1ccc(NC2CCN(CC34CC5CC(CC(C5)C3)C4)CC2)cc1 [Compound 142, 4-((1-(((3r,5r,7r)-adamantan-1-yl)methyl)piperidin-4-yl)amino)-N-(2-aminophenyl)benzamide trihydrochloride]
Second: CC(C)(O)CN1CCC(Nc2ccc(C(=O)Nc3ccccc3N)cc2)CC1(C)C (stereo not drawn) [Compound 369, N-(2-aminophenyl)-4-((1-(2-hydroxy-2-methylpropyl)-2,2-dimethylpiperidin-4-yl)amino)benzamide]
The fold induction at 0.625 µM of the first is higher: 2 to 3 for the first, 1 to 2 for the second.

First: CC(C)(O)CN1CCC(Oc2ccc(C(=O)Nc3ccccc3N)cc2)CC1(C)C (stereo not drawn) [Compound 363, N-(2-aminophenyl)-4-((1-(2-hydroxy-2-methylpropyl)-2,2-dimethylpiperidin-4-yl)oxy)benzamide]
Second: CC(C)(O)CN1CCC(Sc2ccc(C(=O)Nc3ccccc3N)cc2)CC1 [Compound 375, N-(2-aminophenyl)-4-((1-(2-hydroxy-2-methylpropyl)piperidin-4-yl)thio)benzamide]
The fold induction at 0.625 µM of the first is higher: 2 to 3 for the first, 1 to 2 for the second.
